Experimental data: patent US6949350B1, “Chemosensitivity determination using phosphatidylserine” (Evotec Analytical Systems GmbH, priority 1999, dated 2005)
Starred links: 1 amine or outer side, 2 acyl side, 3 side chain; linkers in the order of their positions; H or OH if unused. Positions of bridges follow the written chain, without caps; N, C: chain ends. Non-standard residues stand in square brackets, D forms with d. Residues, ends and D or L forms follow the SMILES beside them. Chains are numbered I, II in the order given. Actinocin(9to1) = Cc1c2oc3c(C)ccc(C(=O)[*:1])c3nc-2c(C(=O)[*:2])c(N)c1=O; NMeV = CN[C@H](C(=O)O)C(C)C; Sar = CNCC(=O)O

Key:
[1] = test system: Jurkat P40 cells; test: time-resolved apoptosis detection with fluorescence-labeled annexin V by fluorescence microscopy; type: cell-based; conditions: 1 μg/ml
Description: 100,000 Jurkat P40 cells were simultaneously mixed with 1 μg/ml actinomycin D in the presence of 2 mM CaCl2 and fluorescence-labeled annexin V and incubated at 37° C. in 5% CO2 over a period of up to 24 h. After 4, 6, 8, 10 and 24 h, an aliquot was withdrawn, applied to a glass slide, fixed and analyzed by fluorescence microscopy. […] When the time elapsed was extended and the cell destruction more advanced, there would be a time when fluorescent cell debris would no longer be visible. It was shown that apoptosis in a solution can be followed in a time-resolved manner by recording images at different times. The reaction mix was prepared at the beginning, and subsequently, the increasing apoptosis was only analyzed by means of imaging methods.

[2] = marker which binds phosphatidylserine; binding depends on calcium cations; cited from earlier work

Compound	degree of apoptosis (number of annexin V stained cells in the observation field) ([1]; 100,000 Jurkat P40 cells, 2 mM CaCl2, 37° C., 5% CO2, aliquots after 4, 6, 8, 10 and 24 h)	secondary necrosis (cell fragments) ([1]; Jurkat P40 cells, after 24 h)	Kd [2]
Cc1c2oc3c(C)ccc(C(=O)N[C@@H]4C(=O)N[C@H](C(C)C)C(=O)N5CCC[C@H]5C(=O)N(C)CC(=O)N(C)[C@@H](C(C)C)C(=O)O[C@@H]4C)c3nc-2c(C(=O)N[C@@H]2C(=O)N[C@H](C(C)C)C(=O)N3CCC[C@H]3C(=O)N(C)CC(=O)N(C)[C@@H](C(C)C)C(=O)O[C@@H]2C)c(N)c1=O [actinomycin D] (I: T[dV]P[Sar][NMeV] / II: T[dV]P[Sar][NMeV]; ester I:1-I:C, II:1-II:C; linker I:N-II:N via Actinocin(9to1))	the degree of apoptosis increases	smaller cell fragments become visible which indicate secondary necrosis	
annexin V: marker which binds phosphatidylserine			0.5 nM
